Source: patent publication US4937373A, “Substituted naphthalene carboxylic acids” (Hoffmann-La Roche Inc., priority 1988, dated 1990)

Columns and labels:
[1] = system: Δ^5 -lipoxygenase (5-LO) pathway, LTB4 formation in rat peritoneal macrophages; experiment: Rat peritoneal macrophage assay, in vitro: LTB4 formation (5-LO pathway); type: cell-based; conditions: stimulated with calcium ionophore A 23187 (5×10^-7 M), LTB4 by radioimmunoassay
From the text: (§1) RAT PERITONEAL MACROPHAGE ASSAY, IN VITRO
(§2) The rat peritoneal macrophage assay measures the ability of a test compound to influence the release of arachidonic acid (AA) from phospholipid stores in the plasma membrane and the subsequent metabolism of AA by the Δ^5 -lipoxygenase (5-LO) and cyclooxygenase (CO) pathways to the final products excreted by the cells: leukotriene B4 (LTB4, from the 5-LO pathway) and prostaglandin E2 (PGE2, from the CO pathway).
(§3) Macrophages were obtained form rats by peritoneal lavaqe with phosphate buffered saline minus Ca^+2 and Mg^+2 (PBS). Cells were washed 3 times with PBS and resuspended in Delbecco's Modified Eagle medium (Gibco Laboratories) containing L-glutamine and D-glucose and supplemented with 10% fetal calf serum. Cells were counted on a Coulter ZBA cell counter and then resuspended to a concentration of 4×10^6 cells/mL. Three mL of the cell suspension were added to plastic culture dishes (3 cm), and then the cells were allowed to adhere for 90 minutes at 37° C. Dishes were washed 3 times with PBS to remove nonadherent cells. ^14 C-AA (ca. […]) were added to the cells (1 μCi/dish) and allowed to incorporate for 90 minutes. Unincorporated ^14 C-AA was removed and the cell layer was again washed 3 times with PBS. Test compounds were dissolved in DMSO and diluted in phosphate-buffered Hank's balanced salt solution to appropriate concentrations. Cells were incubated with test compounds or the solution used to dissolve the test compounds (control) for 30 minutes at 37° C. and were then stimulated with calcium ionophore A 23187 (5×10^-7 M) for 20 minutes. The extracellular fluid was removed and ^14 C radioactivity released into this fluid from AA metabolism was measured by liquid scintillation spectroscopy. The amounts of LTB4 and PGE2, were measured in the extracellular fluid by radioimmunoassay with specific antisera. The effect of a test compound or standard was calculated as a percent inhibition of the maximum effect produced in the presence of A 23187 and expressed as an inhibitory concentration 50% IC50).
(§4) This assay measures inhibition by the test compounds of the 5-LO and the CO pathways of AA metabolism and this inhibition is expressed as an IC50 for LTB4 and PGE2 formation respectively.

[2] = system: Rat Acetic Acid Colitis Model; experiment: Acetic acid-induced colitis in rats, in vivo (myeloperoxidase accumulation); design: species or system rat (Sprague-Dawley)
From the text: ACETIC ACID-INDUCED COLITIS IN RATS, IN VIVO
The rat acetic acid induced colitis bioassay has been described by J. E. Krawisz, et al. in Amer. J. Proc. Gastro. Col. Rec. Surg. 31: 11-18 (1980), and by P. Sharon and W. F. Stenson in Gastroenterology 88: 55-63 (1985) and 86: 453-460 (1984). Acetic acid-induced colitis is characterized by the movement of inflammatory cells into the colon, with the number of such cells in the mucosa being measured by the activity of myeloperoxidase, a marker enzyme for these cells. Positive desirable activity is indicated by a reduction in the high levels of myeloperoxidase caused by acetic acid. Male rats (Sprague-Dawley), weighing 150 to 300g, were pretreated twice daily for two days with either the vehicle (water, or dimethylsulfoxide) or the test inhibitor compound suspended in water or dissolved in dimethylsulfoxide and orally administered. On the third day, the animals were dosed the same as on the previous two days, anesthetized with metofane, and 2 ml of 2.5% acetic acid was injected by syringe into the colonic lumen, followed immediately by 3 ml of air and a rinse consisting of 3 ml of phosphate-buffered saline (the acetic acid is present in the lumen for a sufficient period to cause inflammation without producing severe necrosis or irreversible damage). The animals were administered a second dose of the test compound in the same amount about 16 hours later. 24 hours after the acetic acid treatment, the animals were sacrificed, the colonic mucosa was surgically removed and homogenized in an aqueous buffer at pH 6 with a Tissumizer or similar device and myeloperoxidase was measured in the homogenate using o-phenylenediamine as a chromagen, as described by A. Voller, D. E. Bidwell and A. Bartlett in The Enzyme Linked Immunosorbent Assay (ELISA), Zoological Soc., London 1979, pages 29-30. Control animals were pretreated with the vehicle and saline in place of acetic acid.

[3] = system: cyclooxygenase (CO) pathway, PGE2 formation in rat peritoneal macrophages; experiment: Rat peritoneal macrophage assay, in vitro: PGE2 formation (CO pathway); type: cell-based; conditions: stimulated with calcium ionophore A 23187 (5×10^-7 M), PGE2 by radioimmunoassay
From the text: as §1, §2, §3, §4

[4] = system: rat peritoneal macrophages (^14 C-arachidonic acid release); experiment: Rat peritoneal macrophage assay, in vitro: ^14 C release from arachidonic acid metabolism; type: cell-based; conditions: stimulated with calcium ionophore A 23187 (5×10^-7 M), ^14 C released
From the text: as §1, §2, §3, §4

[5] = molecular target: T1, Δ^5 lipoxygenase from rat basophilic leukemia (RBL-1 cells) (Rattus norvegicus, UniProt P12527); experiment: In vitro test for Δ^5-lipoxygenase inhibitors; type: biochemical; conditions: RBL-1 supernatant enzyme, 6.7 μM [1-^14 C]arachidonic acid, 10 min preincubation; read-out: IC50 value, Δ^5-lipoxygenase inhibition
T1 construct: the resulting supernatant fraction was used as the source of Δ^5 -lipoxygenase; endogenous in cells; host or cells: RBL-1 rat basophilic leukemia cells (supernatant of the homogenate after 49,000 g)
T1 sequence (P12527 1-673): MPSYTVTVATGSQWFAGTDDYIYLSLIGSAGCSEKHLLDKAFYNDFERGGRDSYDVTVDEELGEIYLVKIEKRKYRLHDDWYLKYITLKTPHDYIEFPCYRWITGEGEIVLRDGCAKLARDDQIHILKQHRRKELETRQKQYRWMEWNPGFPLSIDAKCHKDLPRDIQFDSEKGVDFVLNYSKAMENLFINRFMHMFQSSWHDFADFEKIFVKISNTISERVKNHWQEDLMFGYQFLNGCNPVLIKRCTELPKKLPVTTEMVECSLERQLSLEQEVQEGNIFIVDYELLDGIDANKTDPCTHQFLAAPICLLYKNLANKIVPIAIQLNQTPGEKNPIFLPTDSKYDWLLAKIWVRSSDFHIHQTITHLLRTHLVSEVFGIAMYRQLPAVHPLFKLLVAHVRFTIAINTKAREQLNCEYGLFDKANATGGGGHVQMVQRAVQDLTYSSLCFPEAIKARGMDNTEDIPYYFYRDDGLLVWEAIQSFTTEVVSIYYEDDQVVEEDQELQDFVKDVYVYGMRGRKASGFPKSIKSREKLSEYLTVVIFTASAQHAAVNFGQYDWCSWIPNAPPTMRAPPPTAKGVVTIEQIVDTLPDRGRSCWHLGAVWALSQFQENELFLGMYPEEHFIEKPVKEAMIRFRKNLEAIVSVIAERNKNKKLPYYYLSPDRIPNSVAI
Method: IN VITRO TEST FOR Δ^5 -LIPOXYGENASE INHIBITORS
In this procedure a compound is tested for its effect on Δ^5 lipoxygenase from rat basophilic leukemia (RBL-1 cells). The activity of this enzyme was determined by measuring the catalytic conversion of [1-^14 C]arachidonic acid to [1-^14 C-5-hydroperoxy- 6,8,11,14-eicosatetraenoic acid ([1-^14 C]-5-HPETE) which leads to the formation of the 5-hydroxy derivative ([1-^14 C]-5-HETE). The Δ^5 -lipoxygenase was derived from the supernatant fraction of lysed RBL-1 cells using a modification of the method previously described by Jakschik and Lee [Nature 287,51 (1980)]. Briefly, RBL-1 cells were lysed by homogenization in ice-cold buffer (50 mM Tris-HCl buffer. PH 7.2, containing 1 mM EDTA and 14 μM indomethacin). The homogenate was centrifuged at 4° at 49,000 g for 20 minutes and the resulting supernatant fraction was used as the source of Δ^5 -lipoxygenase. […] The ethereal extract containing [1-^14 C]-5-HETE and unreacted substrate was analyzed by silica gel TLC using isooctanemethylethyl ketone-acetic acid (100:9:1) as the developing solvent. […] The effect of an inhibitor on Δ^5 -lipoxygenase activity is determined by preincubating the enzyme for 10 minutes at 30° in the presence or absence of various concentrations of the drug prior to addition of substrate. […]

Row | SMILES | IC50 [1] | IC50 [3] | IC50 [4] | IC50 [5] | % Inhibition of Myeloperoxidase Accumulation ([2]; 10 mg/kg po) | % Inhibition of Myeloperoxidase Accumulation ([2]; 1 mg/kg po)
1 | CCOC(=O)[C@@H](C)c1ccc2cc(OCCCCCCc3cccc(O)c3O)ccc2c1 [(S)-6-[6-(2,3-Dihydroxyphenyl)hexyloxy]-alpha-methyl-2-naphthaleneacetic acid ethyl ester] | 600 nM | 4000 nM | 3000 nM | – | 23 ± 5% | –
2 | O=C(O)Cc1ccc2cc(OCCCCCCc3cccc(O)c3O)ccc2c1 [6-[6-(2,3-dihydroxyphenyl)hexyloxy]-2-naphthalene acetic acid] | 900 nM | 5000 nM | 3000 nM | – | – | 72 ± 8%
3 | C[C@H](C(=O)O)c1ccc2cc(OCCCCCCc3cccc(O)c3O)ccc2c1 [(S)-6-[6-(2,3-dihydroxyphenyl)hexyloxy]-alpha-methyl-2-naphthaleneacetic acid] | 200 nM | 1000 nM | 900 nM | 12 nM | – | 90 ± 11%

More lines, main results first:

Row | IC50 [1] | IC50 [3] | IC50 [4] | IC50 [5] | SMILES | % Inhibition of Myeloperoxidase Accumulation ([2]; 10 mg/kg po) | % Inhibition of Myeloperoxidase Accumulation ([2]; 1 mg/kg po)
4 | 600 nM | 3000 nM | 1000 nM | – | CC(C(=O)O)c1ccc2cc(OCCCCCCc3cccc(O)c3O)ccc2c1 (racemic) [(rac)-6-[6-(2,3-Dihydroxyphenyl)hexyloxy]-alpha-methyl-2-naphthalene-aceticacid] | 88 ± 17% | –
5 | 600 nM | 3000 nM | 1000 nM | – | C[C@H](C(=O)O)c1ccc2cc(OCCCCCCc3ccc(O)c(O)c3)ccc2c1 [(S)-6-[6-(3,4-dihydroxyphenyl)hexyloxy]-alpha-methyl-2-naphthaleneacetic acid] | 13 ± 2% | –
6 | 3000 nM | 9000 nM | 3000 nM | – | O=C(O)c1ccc2cc(OCCCCCCc3cccc(O)c3O)ccc2c1 [6-[6-(2,3-Dihydroxyphenyl)hexyloxy]-2-naphthalenecarboxylic acid] | – | 72 ± 8%
